Measurements from patent publication US11066393B2, “Indolin-2-one derivatives” (Hoffmann-La Roche Inc., priority 2015, dated 2021).

target: T1, mouse ENT-1 transporter (Mus musculus, UniProt Q9JIM1); assay: Adenosine transport activity (ENT1, [3H]-adenosine uptake); format: cell-based; conditions: stable cells expressing mouse ENT-1; [2,8-3H]-adenosine 6 nM, 20 min
T1 construct: expressed in transfected cells
T1 sequence (Q9JIM1 1-460): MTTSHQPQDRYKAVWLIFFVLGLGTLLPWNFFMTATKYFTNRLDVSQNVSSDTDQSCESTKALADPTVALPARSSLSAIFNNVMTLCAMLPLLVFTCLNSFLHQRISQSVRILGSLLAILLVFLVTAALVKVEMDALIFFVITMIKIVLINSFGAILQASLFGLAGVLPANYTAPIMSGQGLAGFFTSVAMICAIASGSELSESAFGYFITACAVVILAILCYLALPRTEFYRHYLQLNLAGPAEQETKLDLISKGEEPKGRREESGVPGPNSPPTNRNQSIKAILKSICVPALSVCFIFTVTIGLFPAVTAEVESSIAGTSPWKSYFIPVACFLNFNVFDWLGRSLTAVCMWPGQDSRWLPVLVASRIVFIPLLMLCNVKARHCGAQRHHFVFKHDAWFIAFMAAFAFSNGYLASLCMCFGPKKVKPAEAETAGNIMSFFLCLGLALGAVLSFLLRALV
Procedure: To measure adenosine transport activity of ENT-1 mammalian cells, stable cells expressing the mouse ENT-1 transporter were plated on day 1 in 96-well culture plates at the density of 60,000 cells/well, in complete DMEM/F12 medium supplemented with glutamax, 10% FBS and 10 μg/ml puromycin. On day 2, the medium was aspirated and the cells were washed twice with uptake buffer (10 mM Hepes-Tris, pH 7.4 containing 150 mM NaCl, 1 mM CaCl2, 2.5 mM KCl, 2.5 mM MgSO4, 10 mM D-glucose) (UB). For inhibition experiments, cells were then incubated at RT with various concentrations of compounds with 1% DMSO final. Non-specific uptake was defined in the presence of 10 μM S-(4-Nitrobenzyl)-6-thioinosine (NBTI, Sigma Cat #N2255).
A solution containing [2,8-^3H]-adenosine 6 nM (40 Ci/mmol, American Radiolabeled chemicals Inc, Cat #ART 0287A) was then immediately added to the wells. The plates were then incubated for 20 min with gentle shaking and the reaction was stopped by aspiration of the mixture and washing (three times) with ice-cold UB. The cells were lysed by the addition of scintillation liquid, shaken 3 hours and the radioactivity in the cells was estimated using a microplates scintillation counter (TopCount NXT, Packard).

Compound | IC50
Cc1ncc(-c2ccc3c(c2)N(c2ccc4c(n2)C(=O)NC4(C)C)C(=O)C3(C)C)cn1 [Example 38, 2-(3,3-Dimethyl-6-(2-methylpyrimidin-5-yl)-2-oxoindolin-1-yl)-5,5-dimethyl-5H-pyrrolo[3,4-b]pyridin-7(6H)-one] | 239 nM
Cc1ncc(-c2ccc3c(c2)N(c2cncc(C(=O)NC4CC(F)(F)C4)n2)C(=O)C3(C)C)cn1 [Example 40, N-(3,3-Difluorocyclobutyl)-6-(3,3-dimethyl-6-(2-methylpyrimidin-5-yl)-2-oxoindolin-1-yl)pyrazine-2-carboxamide] | 323 nM
Cc1ncc(-c2ccc3c(c2)N(c2cncc(C(=O)NC4COC4)n2)C(=O)C3(C)C)cn1 [Example 43, 6-(3,3-Dimethyl-6-(2-methylpyrimidin-5-yl)-2-oxoindolin-1-yl)-N-(oxetan-3-yl)pyrazine-2-carboxamide] | 319 nM
Cc1ncc(-c2ccc3c(c2)N(c2cncc(C(=O)NC(C)(C)C)n2)C(=O)C3(C)C)cn1 [Example 44, N-(tert-Butyl)-6-(3,3-dimethyl-6-(2-methylpyrimidin-5-yl)-2-oxoindolin-1-yl)pyrazine-2-carboxamide] | 243 nM

Stronger by IC50, values ahead:

IC50 | Compound
129 nM | Cc1ncc(-c2ccc3c(c2)N(c2cncc(C(=O)NC4CCC4)n2)C(=O)C3(C)C)cn1 [Example 42, N-Cyclobutyl-6-(3,3-dimethyl-6-(2-methylpyrimidin-5-yl)-2-oxoindolin-1-yl)pyrazine-2-carboxamide]
76.4 nM | Cc1ncc(-c2ccc3c(c2)N(c2cncc(C(=O)NC4CC4)n2)C(=O)C3(C)C)cn1 [Example 39, N-Cyclopropyl-6-(3,3-dimethyl-6-(2-methylpyrimidin-5-yl)-2-oxoindolin-1-yl)pyrazine-2-carboxamide]
46.9 nM | Cc1ncc(-c2ccc3c(c2)N(c2cn(C)c(C(=O)N(C)C)n2)C(=O)C3(C)C)cn1 [Example 46, 4-(3,3-Dimethyl-6-(2-methylpyrimidin-5-yl)-2-oxoindolin-1-yl)-N,N,1-trimethyl-1H-imidazole-2-carboxamide]
21 nM | CNC(=O)c1nc(N2C(=O)C(C)(C)c3ccc(-c4cnc(C)nc4)cc32)cn1C [Example 45, 4-(3,3-Dimethyl-6-(2-methylpyrimidin-5-yl)-2-oxoindolin-1-yl)-N,1-dimethyl-1H-imidazole-2-carboxamide]
